In assay [1] the target is T1, MET channel of Tmc2−/− outer hair cells (TMC1-containing channel) (Mus musculus, UniProt Q8R4P5).
T1 construct: native MET channel complex in apical cochlear OHCs (P5-P6) of Tmc2 knockout mice; TMC1 the remaining TMC; full composition not known; with LHFPL tetraspan subfamily member 5 protein; Transmembrane inner ear expressed protein
T1 sequence (Q8R4P5 1-757): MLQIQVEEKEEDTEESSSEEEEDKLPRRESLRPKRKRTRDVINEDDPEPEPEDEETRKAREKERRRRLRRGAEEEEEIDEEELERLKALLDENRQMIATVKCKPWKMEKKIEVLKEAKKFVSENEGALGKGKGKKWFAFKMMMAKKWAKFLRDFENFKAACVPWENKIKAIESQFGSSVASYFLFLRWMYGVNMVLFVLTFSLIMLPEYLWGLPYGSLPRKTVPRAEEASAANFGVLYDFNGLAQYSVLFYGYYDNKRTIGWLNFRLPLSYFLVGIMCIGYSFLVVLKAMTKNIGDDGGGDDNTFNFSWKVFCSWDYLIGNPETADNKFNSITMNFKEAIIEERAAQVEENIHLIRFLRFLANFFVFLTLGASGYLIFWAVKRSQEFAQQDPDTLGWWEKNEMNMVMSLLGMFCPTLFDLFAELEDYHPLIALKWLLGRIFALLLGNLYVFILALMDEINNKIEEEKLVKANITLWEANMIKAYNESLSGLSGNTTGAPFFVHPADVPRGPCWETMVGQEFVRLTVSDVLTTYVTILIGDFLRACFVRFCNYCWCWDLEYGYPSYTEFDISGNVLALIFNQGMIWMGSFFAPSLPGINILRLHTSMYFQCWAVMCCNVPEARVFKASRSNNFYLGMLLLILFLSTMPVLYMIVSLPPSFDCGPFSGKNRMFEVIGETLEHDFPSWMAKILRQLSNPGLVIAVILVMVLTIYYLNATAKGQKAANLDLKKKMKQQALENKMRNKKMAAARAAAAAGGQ
Description: whole-cell patch clamp of OHC, block of MET current (fluid jet), Hill fit. It counts as cell-based. The conditions noted are these: extracellular DHS, -81 mV, 1.3 mM Ca2+, pH 7.5, 20-25 °C; permeant open-channel pore blocker; native channel complex of Tmc2 knockout OHCs (P5-P6); read-out: KD.

The subject of assay [2] is T2, MET channel of Tmc2+/− outer hair cells (TMC1 and TMC2).
T2 construct: native MET channel complex in apical cochlear OHCs (P5-P6) of heterozygous control mice; mixture of TMC1 and TMC2 in unknown proportion; with LHFPL tetraspan subfamily member 5 protein; Transmembrane inner ear expressed protein
The assay is described as above. The conditions noted are these: extracellular DHS, -81 mV, 1.3 mM Ca2+, pH 7.5, 20-25 °C; permeant open-channel pore blocker; native channel complex of Tmc2 heterozygous OHCs (P5-P6); read-out: KD. It counts as cell-based, Mus musculus.

With `CN[C@@H]1[C@H](O[C@H]2[C@H](O[C@H]3[C@H](O)[C@@H](O)[C@H](NC(=N)N)[C@@H](O)[C@@H]3NC(=N)N)O[C@@H](C)[C@]2(O)CO)O[C@@H](CO)[C@H](O)[C@H]1O` [dihydrostreptomycin], the IC50 in assay [1] was 5.9 ± 0.2 µM; in assay [2], 9.1 ± 0.4 µM.
